Measured values from patent US8288390B2, “Benzofuran derivatives” (Takeda Pharmaceutical Company Limited, priority 2009, dated 2012).

Tests used:
[1] = tested on: rat mixed glial culture; assay: Activity of promoting neuronal neogenesis in rat mixed glial culture; type: cell-based; details: Rattus norvegicus, 72 h, compound 1 μM + rhIGF-1 100 ng/ml, 3 days culture; absorbance at 450 nm (class III beta-tubulin antibody); control rhIGF-1 only = 100%; read-out: Increase Ratio of the Absorbance (% control)
Experimental: From a three-day old SD rat, hippocampus and cerebral cortex were removed. By using a kit of dispersion liquid for neuronal cells (MB-X9901, manufactured by SUMITOMO BAKELITE CO., LTD.), cell suspension was prepared and then seeded on a 96-well plate coated with collagen Type I (4860-010, manufactured by Asahi Techno Glass Co., Ltd.) to 10^5 cells/well. Under the condition of 37° C. and 5% CO2, the cells were cultured for four days in a growth medium (D-MEM/F12 with 10% FBS, comprising PS).
After culturing, the medium was exchanged with a medium for differentiation (D-MEM/F12, comprising PS), added with rhIGF-1 (R&D Systems, 291-G1-250, final concentration of 100 ng/ml) and the compound to 1 μM, followed by further culture for three days. Cultured cells were fixed with 4% paraformaldehyde-PBS (manufactured by MUTO PURE CHEMICALS CO., LTD.) and subjected to membrane penetration using 0.1% Triton X-100 PBS, followed by blocking with Block Ace solution (UK-B80, manufactured by Dainippon Sumitomo Pharma Co., Ltd.). As a primary antibody, Anti-neuron-specific class III beta-tubulin antibody (R&D Systems, MAB1195, clone Tuj-1) was used after 1000× dilution. As a secondary antibody, Anti-Mouse Ig, HRP-Linked F (ab′) 2 Fragment Sheep (Amersham Biosciences, NA9310) was used after 10000× dilution. For washing process, the plate washer (BIO-TEK INSTRUMENTS ELX405) was used. For a chromogenic reaction, the reaction was carried out for 10 minutes using TMB Microwell Peroxidase Substrate System (Kirkegaard & Perry Laboratories, 50-76-00), followed by terminating the reaction according to the addition of 1M phosphoric acid. By using the plate reader (Labsystems Multiskan BICHROMATIC), absorbance at 450 nm was measured.
The absorbance for the case in which no compound is added (i.e., control, rhIGF-1 only) was 100%, and the increase ratio of the absorbance for the compound addition (i.e., compound+rhIGF-1) compared to the control was obtained as % control. Activity of the each compound for promoting neuronal differentiation that is measured according to the above method is summarized in Table 9 and Table 10.

[2] = tested on: Tg2576 transgenic mice; assay: Amelioration of cognitive function in novel object recognition test; type: in vivo, mouse; details: female Tg2576 mice, 10 mg/kg/day orally once a day for 3 weeks; retention 24 hours after training; recovery ratio vs vehicle Tg2576 and wild type
Experimental: Female Tg2576 transgenic mice and wild-type littermates were used at 8-9 months old. All animals were housed in room maintained at 24±1° C. with a 12-h light/dark cycle. Lights on 7:00 a.m. Food chows (Oriental Yeast Co. Tokyo, Japan) and tap water were provided ad libitum.
The compounds (10 mg/kg/day) or vehicle (0.5% methylcellulose, Wako Pure Chemical Industries Limited, Osaka, Japan) was orally administered to the mice once a day for 3 weeks. After the gavages, the novel object recognition test was performed. The test procedure consisted of three sessions: habituation, training, and retention. In the training and retention sessions, observer was not informed of the group name or animal number (blind method). 4-5 mice were habituated to the box (30×30×30 high cm), with 30 minutes of exploration in the absence of objects (habituation session). During the training session, two objects were placed in the back corner of the box. A mouse was then placed at another corner of the box and the total time spent exploring the two objects was recorded for 5 minutes. During the retention session, animals were placed back into the same box 24 hours after the training session, in which one of the familiar objects used during training was replaced with a novel object. The animals were then allowed to explore freely for 5 minutes and the time spent exploring each object was recorded. Throughout the experiments, the objects were used in a counterbalanced manner in terms of an environmental effect, their physical complexity and emotional neutrality. A preference index (PI), a ratio of the amount of time spent exploring the novel object over the total time spent exploring both objects, was used to measure cognitive function. Furthermore, recovery ratio was calculated by following formula; [Recovery ratio]=[[PI of Tg2576 mice treated by each compound]−[PI of Tg2576 mice treated by vehicle]]/[[PI of wild type mice]−[PI of Tg2576 mice treated by vehicle]].×100(%)

[3] = tested on: Akt protein; assay: Activity of inhibiting Akt protein degradation in rat mixed glial culture; type: cell-based; details: compound 1 μM + rhIGF-1 100 ng/ml, 10 minutes at 37° C.; Akt calibrated with ERK; no addition = 100%, rhIGF-1 only = 0%
Experimental: The mixed glial cells used in the Test example 1 were seeded on a 6-well plate coated with collagen Type I (manufactured by Asahi Techno Glass Co., Ltd.) to 4×10^6 cells/well. Under the condition of 37° C. and 5% CO2, the cells were cultured for four days in a growth medium (D-MEM/F12 with 10% FBS, comprising PS). After that, the medium was exchanged with a serum-free medium (D-MEM/F12, comprising PS) and the cells were subjected to starvation for 4 hours under the condition of 37° C. and 5% CO2.
Next, rhIGF-1 (R&D Systems, 291-G1-250, final concentration 100 ng/ml) and the compound were added to obtain 1 μM and reacted in a water bath incubator at 37° C. for 10 minutes. Culture supernatant was aspirated off, 150 μL of RIPA (50 mM Tris-HCl pH7.5, 5 mM EDTA, 100 mM NaCl, 30 mM NaF, 5 mM sodium diphosphate, 137 mg/l pepstatin A, 2.5 KIU/l aprotinin, 1% NP-40, 6 mM sodium deoxycholate, 1 μM microcystinLR, 1 μM Z-Leu-Leu-Nva-H(aldehyde), 48 μM leupeptin, 96 μM 4-(2-aminoethyl)benzenesulfonyl fluoride-HCl, 1 mM sodium orthovanadate) was added thereto, and the reaction was terminated. After the termination of the reaction, the cell lysate was recovered by using a cell scraper on ice. Finally, the cell lysate was centrifuged for 30 minutes at 15000 rpm and the supernatant was taken as a cell extract.
Proteins were recovered from the cell extract by using trichloroacetic acid, and quantified according to Lowry method. Standard curve was established with bovine serum albumin. Based on the measured values, each cell extract was diluted with RIPA to prepare it in constant concentration (10 μg/lane). SDS-PAGE was carried out under reducing condition using 10% acrylamide (45 mA, 1.5 hours). After transferring to a PVDF membrane (0.13 A, 1 hour), reaction with an antibody was carried out. As a primary antibody, Akt (Cell Signaling, 9272) and ERK (Santa Cruz, sc-94) were used with the dilution ratio of 1000. As a secondary antibody, HRP-labeled anti-rabbit antibody (NA9340V, manufactured by Amersham) was used with the dilution ratio of 12500. Then, using ImmunoStar reagent (291-55203, manufactured by Wako Pure Chemical Industries, Ltd.), X-ray film detection was carried out. Quantification of the results was carried out by using GS-800 Calibrated Densitometer (manufactured by BioRad), and then the band strength was converted into the numerals by multiplying the absorbance originating from bands of Akt and ERK-1&2 by the area. Akt was calibrated with ERK to give the numeral values.
Inhibitory activity on Akt degradation was expressed as inhibition ratio. Specifically, the case in which neither the compound nor rhIGF-1 was added (no addition) is 100% and the case in which only rhIGF-1 was added is 0%, and then with the value measured from compound+rhIGF-1, the inhibition ratio was obtained. Inhibition ratio(%)=[(compound+rhIGF-1)−(rhIGF-1)]÷[(no addition)−(rhIGF-1)]×100

| melting point [°C] | SMILES | activity at 1 µM [1] [%] | Preference index (% recovery) [2] [% recovery] | Inhibition of Akt degradation (%) [3] [%] |
| --- | --- | --- | --- | --- |
| – | COc1ccc(N2CCN(c3c(C)c(C)c4c(c3C)CC(C)(C)O4)CC2)cc1 [Example 17, 1-(4-Methoxyphenyl)-4-(2,2,4,6,7-pentamethyl-2,3-dihydro-1-benzofuran-5-yl)piperazine] | 216 | 70.9 | 73.3 |
| – | COc1ccc(N2CCN(c3c(C)c(C)c4c(c3C)C[C@H](C)O4)CC2)cc1 [Example 22, 1-(4-Methoxyphenyl)-4-[(2S)-2,4,6,7-tetramethyl-2,3-dihydro-1-benzofuran-5-yl]piperazine] | 389 | 76.9 | 73.9 |
| – | COc1ccc(N2CCN(c3c(C)c4c(c(OC)c3C)OC(C)(C)C4)CC2)cc1 [Example 47, 1-(4-Methoxyphenyl)-4-(7-methoxy-2,2,4,6-tetramethyl-2,3-dihydro-1-benzofuran-5-yl)piperazine] | > 500 | 82.2 | 55.2 |
| 192 to 193 | Cc1c(C)c(N2CCN(c3ccnc(Cl)n3)CC2)c(C)c2c1OC(C)(C)C2 [Example 82, 2-Chloro-4-[4-(2,2,4,6,7-pentamethyl-2,3-dihydro-1-benzofuran-5-yl)piperazin-1-yl]pyrimidine] | – | – | – |
